In patent US12435044B2, “Pyridazinone herbicides and pyridazinone intermediates used to prepare a herbicide” (FMC Corporation, priority 2018, dated 2025):

Columns and labels:
Test in all cases: Test C pre-/postemergence greenhouse test
Format in all cases: in vivo
Conditions in all cases: scale 0 to 100
[1] = system: crabgrass, large (Digitaria sanguinalis)
Excerpt: (§1) Seeds of plant species selected from blackgrass (Alopecurus myosuroides), ryegrass, Italian (Lolium multiflorum), wheat, winter (winter wheat, Triticum aestivum), galium (catchweed bedstraw, Galium aparine), corn (Zea mays), crabgrass, large (Digitaria sanguinalis), foxtail, giant (Setaria faberii), johnsongrass (Sorghum halepense), lambsquarters (Chenopodium album), morningglory (Ipomoea coccinea), nutsedge, yellow (Cyperus esculentus), pigweed (Amaranthus retroflexus), ragweed (common ragweed, Ambrosia elatior), soybean (Glycine max), barnyardgrass (Echinochloa crus-galli), oilseed rape (Brassica napus), waterhemp (common waterhemp, Amaranthus rudis), pigweed, palmer (Amaranthus palmeri), kochia (Kochia scoparia), oat, wild (Avena fatua), surinam grass (Brachiaria decumbens), windgrass (Apera spica-venti), poinsettia, wild (Euphorbia heterophylla) and velvetleaf (Abutilon theophrasti) were planted into a silt loam soil and treated preemergence with test chemicals formulated in a non-phytotoxic solvent mixture which included a surfactant.
(§2) At the same time, plants selected from these crop and weed species and also chickweed (common chickweed, Stellaria media), buckwheat, wild (Polygonum convolvulus), mustard, wild (Sinapis arvensis), field poppy (Papaver rhoeas), field violet (Viola arvensis), nightshade (eastern black nightshade, Solanum ptycanthum), speedwell (bird's-eye speedwell, Veronica persica), horseweed (Conyza canadensis), cutleaf geranium (Geranium dissectum), and Canada thistle (Cirsium arvense) were planted in pots containing Redi-Earth® planting medium (Scotts Company, 14111 Scottslawn Road, Marysville, Ohio 43041) comprising spaghnum peat moss, vermiculite, wetting agent and starter nutrients and treated with postemergence applications of test chemicals formulated in the same manner. Plants ranged in height from 2 to 18 cm (1- to 4-leaf stage) for postemergence treatments. Treated plants and controls were maintained in a greenhouse for 13 to 21 d, after which time all species were compared to controls and visually evaluated. Plant response ratings, summarized in Table C-1 (postemergence) and C-2 (preemergence), are based on a scale of 0 to 100 where 0 is no effect and 100 is complete control. A dash (-) response means no test result.

[2] = system: pigweed, palmer (Amaranthus palmeri)
Excerpt: as §1, §2

soybean (Glycine max) = system: soybean (Glycine max)
Excerpt: as §1, §2

oat, wild (Avena fatua) = system: oat, wild (Avena fatua)
Excerpt: as §1, §2

[3] = system: velvetleaf (Abutilon theophrasti)
Excerpt: as §1, §2

[4] = system: oilseed rape (Brassica napus)
Excerpt: as §1, §2

[5] = system: ryegrass, Italian (Lolium multiflorum)
Excerpt: as §1, §2

[6] = system: wheat, winter (winter wheat, Triticum aestivum)
Excerpt: as §1, §2

[7] = system: galium (catchweed bedstraw, Galium aparine)
Excerpt: as §1, §2

[8] = system: poinsettia, wild (Euphorbia heterophylla)
Excerpt: as §1, §2

[9] = system: windgrass (Apera spica-venti)
Excerpt: as §1, §2

[10] = system: johnsongrass (Sorghum halepense)
Excerpt: as §1, §2

[11] = system: foxtail, giant (Setaria faberii)
Excerpt: as §1, §2

## Cc1cc(Cl)c2ccccc2c1-c1c(O)c(Cl)nn(C)c1=O [Cpd. No. 65]
[1]; Postemergence, 16 g ai/ha
  Plant response rating, Crabgrass, Large: 30
[1]; Postemergence, 31 g ai/ha
  Plant response rating, Crabgrass, Large: 40
[1]; Postemergence, 62 g ai/ha
  Plant response rating, Crabgrass, Large: 40
[1]; Postemergence, 125 g ai/ha
  Plant response rating, Crabgrass, Large: 70
[1]; Preemergence, 31 g ai/ha
  Plant response rating, Crabgrass, Large: 0
[1]; Preemergence, 61 g ai/ha
  Plant response rating, Crabgrass, Large: 0
[1]; Preemergence, 62 g ai/ha
  Plant response rating, Crabgrass, Large: 60
[1]; Preemergence, 125 g ai/ha
  Plant response rating, Crabgrass, Large: 65
[2]; Postemergence, 16 g ai/ha
  Plant response rating, Pigweed, Palmer: 35
[2]; Postemergence, 31 g ai/ha
  Plant response rating, Pigweed, Palmer: 55
[2]; Postemergence, 62 g ai/ha
  Plant response rating, Pigweed, Palmer: 60
[2]; Postemergence, 125 g ai/ha
  Plant response rating, Pigweed, Palmer: 95
[2]; Preemergence, 31 g ai/ha
  Plant response rating, Pigweed, Palmer: 70
[2]; Preemergence, 61 g ai/ha
  Plant response rating, Pigweed, Palmer: 50
[2]; Preemergence, 62 g ai/ha
  Plant response rating, Pigweed, Palmer: 100
[2]; Preemergence, 125 g ai/ha
  Plant response rating, Pigweed, Palmer: 100
Soybean (Glycine max); Postemergence, 16 g ai/ha
  Plant response rating, Soybean: 65
Soybean (Glycine max); Postemergence, 31 g ai/ha
  Plant response rating, Soybean: 75
Soybean (Glycine max); Postemergence, 62 g ai/ha
  Plant response rating, Soybean: 80
Soybean (Glycine max); Postemergence, 125 g ai/ha
  Plant response rating, Soybean: 85
Soybean (Glycine max); Preemergence, 31 g ai/ha
  Plant response rating, Soybean: 0
Soybean (Glycine max); Preemergence, 61 g ai/ha
  Plant response rating, Soybean: 0
Soybean (Glycine max); Preemergence, 62 g ai/ha
  Plant response rating, Soybean: 5
Soybean (Glycine max); Preemergence, 125 g ai/ha
  Plant response rating, Soybean: 30
oat, wild (Avena fatua); Postemergence, 16 g ai/ha
  Plant response rating, Oat, Wild: 98
oat, wild (Avena fatua); Postemergence, 31 g ai/ha
  Plant response rating, Oat, Wild: 100
oat, wild (Avena fatua); Postemergence, 62 g ai/ha
  Plant response rating, Oat, Wild: 100
oat, wild (Avena fatua); Postemergence, 125 g ai/ha
  Plant response rating, Oat, Wild: 100
oat, wild (Avena fatua); Preemergence, 31 g ai/ha
  Plant response rating, Oat, Wild: 35
oat, wild (Avena fatua); Preemergence, 61 g ai/ha
  Plant response rating, Oat, Wild: 30
oat, wild (Avena fatua); Preemergence, 62 g ai/ha
  Plant response rating, Oat, Wild: 40
oat, wild (Avena fatua); Preemergence, 125 g ai/ha
  Plant response rating, Oat, Wild: 60
[3]; Postemergence, 16 g ai/ha
  Plant response rating, Velvetleaf: 40
[3]; Postemergence, 31 g ai/ha
  Plant response rating, Velvetleaf: 85
[3]; Postemergence, 62 g ai/ha
  Plant response rating, Velvetleaf: 100
[3]; Postemergence, 125 g ai/ha
  Plant response rating, Velvetleaf: 100
[3]; Preemergence, 31 g ai/ha
  Plant response rating, Velvetleaf: 60
[3]; Preemergence, 61 g ai/ha
  Plant response rating, Velvetleaf: 40
[3]; Preemergence, 62 g ai/ha
  Plant response rating, Velvetleaf: 75
[3]; Preemergence, 125 g ai/ha
  Plant response rating, Velvetleaf: 100
[4]; Postemergence, 16 g ai/ha
  Plant response rating, Oilseed Rape: 95
[4]; Postemergence, 31 g ai/ha
  Plant response rating, Oilseed Rape: 100
[4]; Postemergence, 62 g ai/ha
  Plant response rating, Oilseed Rape: 100
[4]; Postemergence, 125 g ai/ha
  Plant response rating, Oilseed Rape: 100
[4]; Preemergence, 31 g ai/ha
  Plant response rating, Oilseed Rape: 5
[4]; Preemergence, 61 g ai/ha
  Plant response rating, Oilseed Rape: 5
[4]; Preemergence, 62 g ai/ha
  Plant response rating, Oilseed Rape: 98
[4]; Preemergence, 125 g ai/ha
  Plant response rating, Oilseed Rape: 100
[5]; Postemergence, 16 g ai/ha
  Plant response rating, Ryegrass, Italian: 85
[5]; Postemergence, 31 g ai/ha
  Plant response rating, Ryegrass, Italian: 95
[5]; Postemergence, 62 g ai/ha
  Plant response rating, Ryegrass, Italian: 95
[5]; Postemergence, 125 g ai/ha
  Plant response rating, Ryegrass, Italian: 95
[5]; Preemergence, 31 g ai/ha
  Plant response rating, Ryegrass, Italian: 70
[5]; Preemergence, 61 g ai/ha
  Plant response rating, Ryegrass, Italian: 40
[5]; Preemergence, 62 g ai/ha
  Plant response rating, Ryegrass, Italian: 95
[5]; Preemergence, 125 g ai/ha
  Plant response rating, Ryegrass, Italian: 95
[6]; Postemergence, 16 g ai/ha
  Plant response rating, Wheat: 90
[6]; Postemergence, 31 g ai/ha
  Plant response rating, Wheat: 95
[6]; Postemergence, 62 g ai/ha
  Plant response rating, Wheat: 95
[6]; Postemergence, 125 g ai/ha
  Plant response rating, Wheat: 95
[6]; Preemergence, 31 g ai/ha
  Plant response rating, Wheat: 60
[6]; Preemergence, 61 g ai/ha
  Plant response rating, Wheat: 30
[6]; Preemergence, 62 g ai/ha
  Plant response rating, Wheat: 80
[6]; Preemergence, 125 g ai/ha
  Plant response rating, Wheat: 90
[7]; Postemergence, 16 g ai/ha
  Plant response rating, Galium: 90
[7]; Postemergence, 31 g ai/ha
  Plant response rating, Galium: 90
[7]; Postemergence, 62 g ai/ha
  Plant response rating, Galium: 95
[7]; Postemergence, 125 g ai/ha
  Plant response rating, Galium: 98
[7]; Preemergence, 31 g ai/ha
  Plant response rating, Galium: 85
[7]; Preemergence, 61 g ai/ha
  Plant response rating, Galium: 0
[7]; Preemergence, 62 g ai/ha
  Plant response rating, Galium: 98
[7]; Preemergence, 125 g ai/ha
  Plant response rating, Galium: 100
[8]; Postemergence, 16 g ai/ha
  Plant response rating, Poinsettia, Wild: 70
[8]; Postemergence, 31 g ai/ha
  Plant response rating, Poinsettia, Wild: 95
[8]; Postemergence, 62 g ai/ha
  Plant response rating, Poinsettia, Wild: 80
[8]; Postemergence, 125 g ai/ha
  Plant response rating, Poinsettia, Wild: 100
[8]; Preemergence, 31 g ai/ha
  Plant response rating, Poinsettia, Wild: 35
[8]; Preemergence, 61 g ai/ha
  Plant response rating, Poinsettia, Wild: 25
[8]; Preemergence, 62 g ai/ha
  Plant response rating, Poinsettia, Wild: 70
[8]; Preemergence, 125 g ai/ha
  Plant response rating, Poinsettia, Wild: 100
[9]; Postemergence, 16 g ai/ha
  Plant response rating, Windgrass: 90
[9]; Postemergence, 31 g ai/ha
  Plant response rating, Windgrass: 90
[9]; Postemergence, 62 g ai/ha
  Plant response rating, Windgrass: 95
[9]; Postemergence, 125 g ai/ha
  Plant response rating, Windgrass: 95
[9]; Preemergence, 31 g ai/ha
  Plant response rating, Windgrass: 80
[9]; Preemergence, 61 g ai/ha
  Plant response rating, Windgrass: 50
[9]; Preemergence, 62 g ai/ha
  Plant response rating, Windgrass: 95
[9]; Preemergence, 125 g ai/ha
  Plant response rating, Windgrass: 100
[10]; Postemergence, 16 g ai/ha
  Plant response rating, Johnsongrass: 20
[10]; Postemergence, 31 g ai/ha
  Plant response rating, Johnsongrass: 40
[10]; Postemergence, 62 g ai/ha
  Plant response rating, Johnsongrass: 75
[10]; Postemergence, 125 g ai/ha
  Plant response rating, Johnsongrass: 85
[10]; Preemergence, 31 g ai/ha
  Plant response rating, Johnsongrass: 5
[10]; Preemergence, 61 g ai/ha
  Plant response rating, Johnsongrass: 0
[10]; Preemergence, 62 g ai/ha
  Plant response rating, Johnsongrass: 5
[10]; Preemergence, 125 g ai/ha
  Plant response rating, Johnsongrass: 20
[11]; Postemergence, 16 g ai/ha
  Plant response rating, Foxtail, Giant: 95
[11]; Postemergence, 31 g ai/ha
  Plant response rating, Foxtail, Giant: 95
[11]; Postemergence, 62 g ai/ha
  Plant response rating, Foxtail, Giant: 98
[11]; Postemergence, 125 g ai/ha
  Plant response rating, Foxtail, Giant: 98
[11]; Preemergence, 31 g ai/ha
  Plant response rating, Foxtail, Giant: 75
[11]; Preemergence, 61 g ai/ha
  Plant response rating, Foxtail, Giant: 35
[11]; Preemergence, 62 g ai/ha
  Plant response rating, Foxtail, Giant: 95
[11]; Preemergence, 125 g ai/ha
  Plant response rating, Foxtail, Giant: 100
